This is an account of results in the SangsterLogP compilation.

Usually logP stands for the decadic logarithm of the partition coefficient of the neutral form, usually between octanol and water. High values mean higher lipophilicity, low ones lower lipophilicity.

The data set can be described thus: method code SF-AS, from DOI: 10.1002/qsar.19900090404.
`COc1cnccn1` gave a log partition coefficient (logP) of 0.73.

`COC(=O)c1ccncn1`: the logP is -0.27.

Turning to `CSc1ncccn1`, the logP was 1.01.

`COC(=O)c1cccnn1` returned a logP of -0.43.

Take `CCCOc1cnccn1`: the lipophilicity (logP) was 1.84.

`NC(=O)c1ncccn1` showed a log partition coefficient (logP) of -1.2.

`N#Cc1ccnnc1`: the logP was -0.63.

Regarding `CN(C)c1cncnc1`, the lipophilicity (logP) turned out to be 0.46.

For `CN(C)c1ccncn1`, the logP was 0.58.

As to `Nc1ccnnc1`, the logP was -0.53.

As for `Cc1ccnnc1`, the logP was -0.32.

Take `CCOc1ccncn1`: the logP was determined as 0.97.

As to `Clc1ncccn1`, the logP is 0.36.

For `Cc1cncnc1`, the logP is 0.01.

In turn, `NC(=O)c1cccnn1` came in with a logP of -0.73.

Take `COC(=O)c1ncccn1`: the logP was -0.71.

Compound `CC(=O)c1cnccn1` returned a logP of 0.2.

Regarding `CCOC(=O)c1ncccn1`, the logP is -0.31.

For the compound `Clc1cnccn1`, the logP was 0.7.

For `CCOC(=O)c1cnccn1`, the logP stood at 0.28.

In turn, `CC(=O)Nc1ccnnc1` displayed a logP of -0.41.

In turn, `COc1ccncn1` gave a logP of 0.54.

For the compound `CCOc1cncnc1`, the logP came out at 0.56.

`NC(=O)c1cnccn1`: the logP was -0.5.

With `CCOc1cnccn1`, the logP came to 1.28.

`CC(=O)Nc1cncnc1` registered a logP of -0.22.

Take `CCOc1ncccn1`: the logP came to 0.74.

Take `CCOC(=O)c1cncnc1`: the logP is 0.52.

`COc1cncnc1` yielded a logP of 0.07.

In turn, `CCCOc1ccccn1` showed a logP of 2.38.

Take `CCc1ccccn1`: the logP worked out at 1.6.

Turning to `CCOC(=O)c1ccnnc1`, the logP came out at 0.23.

`NC(=O)c1cncnc1` showed a logP of -0.92.

`CCOc1ccnnc1` had a log partition coefficient (logP) of 0.2.

`Fc1ccccn1` registered a logP of 0.84.

Regarding `Fc1ncccn1`, the logP stood at 0.02.

`COc1ncccn1` registered a logP of 0.23.

`CSc1cnccn1`: the log partition coefficient (logP) turned out to be 1.17.

On to `Cc1ncccn1`, for which the logP was -0.05.

Turning to `COC(=O)c1cncnc1`, the logP is 0.03.

Regarding `CN(C)c1ncccn1`, the logP amounted to 1.07.

`Fc1cncnc1`: the logP is -0.03.

In turn, `Cc1cccnn1` returned a logP of -0.35.

As to `N#Cc1cnccn1`, the logP is -0.01.

`NC(=O)c1ccnnc1` had a logP of -0.96.

In the case of `CCOc1ccccn1`, the logP amounted to 1.81.

Take `CC(=O)Nc1cnccn1`: the logP is -0.03.

In turn, `COc1cccnn1` had a logP of 0.08.

The compound `CC(=O)Nc1ccncn1` showed a logP of 0.03.

Consider `Nc1ccncn1`, for which the logP is -0.25.

`Clc1cccnn1`: the logP came to 0.1.

`CCOc1cccnn1`: the logP is 0.63.

Take `COC(=O)c1ccnnc1`: the logP was -0.27.

Compound `N#Cc1ncccn1` had a lipophilicity (logP) of -0.31.

For the compound `Fc1cnccn1`, the logP was determined as 0.29.

In turn, `NC(=O)c1ccncn1` came in with a logP of -0.68.
